Laboratory results taken from patent publication US20180135134A1, “TARGETED SELECTION OF PATIENTS FOR TREATMENT WITH CORTISTATIN DERIVATIVES” (President and Fellows of Harvard College, priority 2015, published 2018).

Tests used:
NCI-N87 = test: Soft agar growth assay (Alamar Blue); details: Gastric cancer, HER2 overexpression, 100 nM cortistatin A
Description: (§1) For the 62 cell lines 96 well suspension cell culture plates were prepared. 100 μL of the soft agar bottom layer (0.6% final concentration in complete medium) was poured and left to solidify. 50 μL of the soft agar top layer (0.4% final concentration) containing the corresponding cells and cell number were then added on top, solidified and incubated at 37° C., 10% CO2. After the soft agar had solidified, the test items were added at indicated final concentrations into the inner wells of the plate. Subsequently, the assay was incubated in cell culture incubators for 8 to 14 days. Finally, the assay was developed using Alamar Blue and upon 1-5 h of incubation at 37° C. fluorescence intensity was determined (excitation: 560 nm; emission: 590 nm). As low control, cells were treated with 1E-05M Staurosporine (6fold values). As high control, cells were treated with 0.1% DMSO (solvent control, 6 fold values).
(§2) Raw data were converted into percent soft agar growth relative to high controls (solvent 0.1% DMSO) and low controls (1E-05M Staurosporine), which were set to 100% and 0%, respectively.

SET-2 = test: Synergy assay with ruxolitinib (Chou-Talalay), SET-2; assay type: cell-based, human; details: combination of cortistatin A with JAK1/2 inhibitor ruxolitinib, FIG. 5
Description: SET-2 and UKE-1 cells were co-treated with constant ratios of ruxolitinib to CA, 1 to 1 or 10 to 1, in a 96-well growth assay format with a range of 2-fold dose dilutions of compounds. SET-2 and UKE-1 cells were also treated with ruxolitinib alone or CA alone in a 2-fold dilution series. The Chou-Talalay combination index values at 50% growth inhibition (Fa=0.5) were determined using CalcuSyn software (see Chou, T. C. Cancer Res. 2010 Jan. 15; 70(2):440-6) (FIG. 5).

RL95-2 = test: Soft agar growth assay (Alamar Blue); details: ER-alpha positive, 100 nM cortistatin A
Description: as §1, §2

HCT116 = test: Cellular proliferation assay (CellTiter-Blue, day 7); details: Homo sapiens, HCT-116
Description: (§3) All suspension cells were plated (96-well) in triplicate at 5,000-30,000 cells per well for testing (n=3). Viable cell number was estimated after 3, 7 and 10 days by counting viable cells from one vehicle well, generating a cell dilution series, transferring 20 ml per well in duplicate to a 384-well plate, and performing a linear regression to CellTiter-Glo (Promega) response (SPECTRAmax M3, Molecular Devices). Cells from all wells were also fourfold diluted in media and transferred in duplicate for CellTiter-Glo measurement. On days 3 and 7, an equal volume for all wells was split-back with fresh media and compound, such that the resulting cell density for the vehicle well matched the initial seeding density. For days 7 and 10, estimated cell number represents the split-adjusted theoretical cell number. HCT116 were plated (96-well) in triplicate at 250 cells per well. Cells were incubated in the presence of vehicle, 1 μM paclitaxel, or compound. On day 7, CellTiter-Blue (Promega) response was measured and values were normalized to vehicle (100% growth) and paclitaxel (0% growth). For growth assays with inhibitors, n=3 for each concentration with two independent experiments.

MV4;11 = test: Cellular proliferation assay (CellTiter-Glo); details: Homo sapiens
Description: (§4) All suspension cells were plated (96-well) in triplicate at 5,000-30,000 cells per well for testing (n=3). Viable cell number was estimated after 3, 7 and 10 days by counting viable cells from one vehicle well, generating a cell dilution series, transferring 20 ml per well in duplicate to a 384-well plate, and performing a linear regression to CellTiter-Glo (Promega) response (SPECTRAmax M3, Molecular Devices). Cells from all wells were also fourfold diluted in media and transferred in duplicate for CellTiter-Glo measurement. On days 3 and 7, an equal volume for all wells was split-back with fresh media and compound, such that the resulting cell density for the vehicle well matched the initial seeding density. For days 7 and 10, estimated cell number represents the split-adjusted theoretical cell number. […] For growth assays with inhibitors, n=3 for each concentration with two independent experiments.

GRANTA 519 = test: Cellular proliferation assay (CellTiter-Glo); details: Homo sapiens
Description: as §3

OCI-LY1 = test: Cellular proliferation assay (CellTiter-Glo); details: Homo sapiens
Description: as §4

JeKo-1 = test: Cellular proliferation assay (CellTiter-Glo); details: Homo sapiens
Description: as §3

MKN-45 = test: Soft agar growth assay (Alamar Blue); details: Gastric cancer, MET amplification, 100 nM cortistatin A
Description: as §1, §2

SK-N-SH = test: Soft agar growth assay (Alamar Blue); details: Neuroblastoma, 100 nM cortistatin A
Description: as §1, §2

[1] = tested on: disseminated MV4;11-mCLP leukemia; test: MV4;11 xenograft model in NSG mice; assay type: in vivo, mouse
Description: The MV4;11 xenograft model was performed as previously described (Etchin, J. et al. Antileukemic activity of nuclear export inhibitors that spare normal hematopoietic cells. Leukemia 27, 66-74 (2013)). Two-million MV4; 11-mCLP cells were injected into the tail vein of 7-week-old female non-obese diabetic-severe combined immuno-deficient (NOD-SCID)Il2rg^−/− (NSG) mice (The Jackson Laboratory) and tumour burden was assessed by bioluminescence imaging (BLI) using an IVIS Spectrum system (Caliper Life Sciences). […] After 30 days, blood counts were obtained (Hemavet 950 F, Drew Scientific) and spleen, femur and peripheral blood cells were collected and analysed by flow cytometry (LSR Fortessa, BD Biosciences) from three mice per group, having the highest, lowest and median BLI value. […] Survival was measured as the time from therapy initiation until moribund state. […]
The MV4;11 xenograft model was performed as previously described (Etchin, J. et al. Antileukemic activity of nuclear export inhibitors that spare normal hematopoietic cells. Leukemia 27, 66-74 (2013)). Two-million MV4;11-mCLP cells were injected into the tail vein of 7-week-old female non-obese diabetic-severe combined immuno-deficient (NOD-SCID)Il2rg-^−/− (NSG) mice (The Jackson Laboratory) and tumour burden was assessed by bioluminescence imaging (BLI) using an IVIS Spectrum system (Caliper Life Sciences). […]

MOLM-14 = test: Cellular proliferation assay (CellTiter-Glo); details: Homo sapiens
Description: as §4

Jurkat = test: Cellular proliferation assay (CellTiter-Glo); details: Homo sapiens
Description: as §4

[2] = tested on: megakaryocytic and erythroleukemia cell lines; test: Comparison of sensitivity of megakaryocytic and erythroleukemia cell lines; details: K562 and HEL compared to MEG-01 and SET-2 (BCR-Abl or JAK2V617F)
REH = test: Cellular proliferation assay (CellTiter-Glo); details: Homo sapiens
Description: as §4

CDK8 W105M = molecular target: T1, CDK8 W105M (Homo sapiens, UniProt P49336, W105M); test: Drug resistant allele growth assay in MOLM-14 cells; assay type: cell-based; details: expression of CDK8 W105M; FIG. 9
T1 construct: host or cells: MOLM-14 cells, lentiviral transduction (pLVX-EF1alpha-IRES vectors)
Description: 5′-Flag-tagged CDK8 and CDK19 were cloned from pBabe.puro.CDK8.flag (Addgene 19758) and F-CDK8L (Addgene 24762) into pLVX-EF1alpha-IRES-mCherry and pLVX-EF1alpha-IRES-ZsGreen (Clontech) and transformed into E. coli (One Shot Stbl3, Invitrogen). Point mutations were introduced by whole-plasmid PCR (QuikChange II XL Site-Directed Mutagenesis Kit, Agilent). pLVX lentiviral vectors were co-transfected with psPASx and pMD2.G (Addgene) in 293T cells. After 48 h, viral supernatants were collected and passed through a 0.45 m filter (Millipore). For transductions, 24-well plates were coated with 500 μl of 20 μg ml RetroNectin (Clontech) at 4° C. overnight, blocked with 2% BSA for 30 min, washed with PBS, and 300-500 μl of viral supernatant was added. The plates were centrifuged (2,000 g, 1.5 h) and then set in an incubator. After 2 h, viral supernatant was removed and 500 μl per well of 200,000 cells per ml was added. After 1-3 days, the cells were expanded and isolated by FACS.

MCF-7 = test: Soft agar growth assay (Alamar Blue); details: Breast cancer, ER-alpha positive, 100 nM cortistatin A
Description: as §1, §2

CDK8/19 = molecular target: T2, CDK8/19 (Homo sapiens, UniProt P49336); test: Recombinant kinome-wide selectivity profiling (wildtype-profiler, ProQinase), 294 recombinant kinases; assay type: biochemical; details: 600 nM cortistatin A; FIG. 7A
T2 construct: purchased ProQinase GmbH
Text: Recombinant kinome-wide selectivity profiling.

T1 sequence (P49336 whole entry W105M): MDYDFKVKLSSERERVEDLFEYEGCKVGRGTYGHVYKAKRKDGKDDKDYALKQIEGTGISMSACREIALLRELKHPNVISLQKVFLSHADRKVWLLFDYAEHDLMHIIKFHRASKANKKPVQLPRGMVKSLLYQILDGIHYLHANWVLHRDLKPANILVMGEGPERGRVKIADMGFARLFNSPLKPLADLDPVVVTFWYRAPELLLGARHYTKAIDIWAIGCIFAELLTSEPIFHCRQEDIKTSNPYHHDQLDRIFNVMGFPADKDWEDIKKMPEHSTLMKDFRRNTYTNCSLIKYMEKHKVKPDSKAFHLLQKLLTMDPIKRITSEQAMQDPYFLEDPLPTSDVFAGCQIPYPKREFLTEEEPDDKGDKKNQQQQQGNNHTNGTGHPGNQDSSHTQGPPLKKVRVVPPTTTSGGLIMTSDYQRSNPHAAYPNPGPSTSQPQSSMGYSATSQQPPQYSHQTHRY
T1 sequence (P24863 whole entry partner): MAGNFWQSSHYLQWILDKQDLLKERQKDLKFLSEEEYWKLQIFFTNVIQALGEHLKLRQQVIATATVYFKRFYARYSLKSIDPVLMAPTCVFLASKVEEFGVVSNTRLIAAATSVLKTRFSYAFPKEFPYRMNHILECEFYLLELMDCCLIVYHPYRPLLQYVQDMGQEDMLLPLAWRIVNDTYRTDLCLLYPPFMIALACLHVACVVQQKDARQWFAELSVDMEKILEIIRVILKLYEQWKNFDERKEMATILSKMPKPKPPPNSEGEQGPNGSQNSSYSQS
T2 sequence (P49336 whole entry): as the sequence (P49336 whole entry W105M) above, with M105W counted along it
T2 sequence (P24863 whole entry partner): as the sequence (P24863 whole entry partner) above

With `CN(C)[C@H]1C[C@@]23CC[C@@]4(O2)C(=CC[C@]2(C)[C@@H](c5ccc6ccncc6c5)CC[C@H]24)C=C3[C@@H](O)[C@@H]1O` [Cortistatin A, cortistatin A] the “% growth rel. to vehicle” value (NCI-N87) was 26%, the “combination index (synergy) for inhibition of proliferation” value (SET-2) was “synergizes” and the “% growth rel. to vehicle” value (RL95-2) was 16%. For the same compound, the GI50 (HCT116) was over 1000 nM, the GI50 (MV4;11; MV4-11) was 6 nM and the GI50 (MV4;11; MV4-11, 240 h) was 6 nM. For the same compound, the GI50 (GRANTA 519) was 400 nM, the GI50 (OCI-LY1) was 37 nM and the GI50 (JeKo-1) was under 1 nM. The “% growth rel. to vehicle” value (MKN-45) was 27%, the “% growth rel. to vehicle” value (SK-N-SH) was 29% and the “leukemia cells in the lungs (haematoxylin and eosin staining)” value ([1]; MV4;11 AML mice, Day 30, FIG. 10) was “fewer leukemia cells in the lungs”. The spleen weight ([1]; female NSG mice, once daily IP for 15 days, measured 37 days after injection of cells, FIG. 6) was “prevents spleen weight increase”, the GI50 (MOLM-14; MOLM-14) was 5 nM and the GI50 (MOLM-14; MOLM-14, 240 h) was 5 nM. The GI50 (Jurkat) was 155 nM, the “difference in sensitivity between megakaryocytic and erythroleukemia cell lines with the same mutations” value [2] was “more than 100 fold” and the GI50 (REH) was 1 nM. For the same compound, the “growth of MOLM-14 cells expressing drug resistant allele” value (CDK8 W105M) was “able to proliferate in the presence of cortistatin A”, the “% growth rel. to vehicle” value (MCF-7) was 49% and the “kinase selectivity (kinase activity percent remaining, 294 recombinant kinases)” value (CDK8/19) was “selectively inhibits CDK8/19”.
